Results as given in PubChem BioAssay AID1745844 (Carcinogenic Potency Database (CPDB), 2022).
Values joined by “and” are separate entries in the source; they are usually repeats but may differ in a detail not shown here. Equal entries are not always repeated. Active and inactive are the calls of the source. How the calls were made is not given here.

Test system: rodent lifetime carcinogenesis bioassay, tumor incidence TD50
Assay: carcinogenic potency in animals, long-term in vivo studies, CPDB compilation (AID 1745844)

`CC(C)CCC[C@@H](C)[C@H]1CC[C@H]2[C@@H]3CC=C4C[C@@H](OC(=O)Cc5ccc(N(CCCl)CCCl)cc5)CC[C@]4(C)[C@H]3CC[C@]12C` showed a TD50 (mouse, strain B6C3F1, females, by gavage, site: all sites + lung + myocardium, lesion: leukemia + lymphoma + alveolar/bronchiolar adenoma + alveolar/bronchiolar carcinoma + sarcoma, NOS, dosed 70 weeks, study length 83 weeks) of 0.211 mg/kg/day, a TD50 (mouse, strain B6C3F1, females, by gavage, site: all sites, lesion: hemangiosarcoma, dosed 70 weeks, study length 83 weeks) of 1.52 mg/kg/day and a TD50 (mouse, strain B6C3F1, females, by gavage, site: all sites, lesion: leukemia + lymphoma, dosed 70 weeks, study length 82 weeks) of 2.07 mg/kg/day. It also gave a TD50 (mouse, strain B6C3F1, females, by gavage, site: all sites, lesion: leukemia + lymphoma, dosed 70 weeks, study length 83 weeks) of 0.652 mg/kg/day, a TD50 (mouse, strain B6C3F1, females, by gavage, site: any site (literature study), lesion: several types, types named in the paper, dosed 70 weeks, study length 83 weeks) of 0.183 mg/kg/day and a TD50 (mouse, strain B6C3F1, females, by gavage, site: lung, lesion: alveolar/bronchiolar adenoma + alveolar/bronchiolar carcinoma, dosed 70 weeks, study length 83 weeks) of 0.416 mg/kg/day. For the same compound, the TD50 (mouse, strain B6C3F1, females, by gavage, site: myocardium, lesion: sarcoma, NOS, dosed 70 weeks, study length 83 weeks) was 0.951 mg/kg/day, the TD50 (mouse, strain B6C3F1, females, by gavage, site: ovary, lesion: tubular adenoma, dosed 70 weeks, study length 83 weeks) was 0.912 mg/kg/day and the TD50 (mouse, strain B6C3F1, males, by gavage, site: all sites + lung + myocardium, lesion: leukemia + lymphoma + alveolar/bronchiolar adenoma + alveolar/bronchiolar carcinoma + sarcoma, NOS, dosed 64 weeks, study length 81 weeks) was 0.757 mg/kg/day. The TD50 (mouse, strain B6C3F1, males, by gavage, site: all sites, lesion: hemangiosarcoma, dosed 64 weeks, study length 81 weeks) was 6.15 mg/kg/day, the TD50 (mouse, strain B6C3F1, males, by gavage, site: all sites, lesion: leukemia + lymphoma, dosed 64 weeks, study length 81 weeks) was 2.13 mg/kg/day and 1.89 mg/kg/day and the TD50 (mouse, strain B6C3F1, males, by gavage, site: any site (literature study), lesion: several types, types named in the paper, dosed 64 weeks, study length 81 weeks) was 0.728 mg/kg/day. It also gave a TD50 (mouse, strain B6C3F1, males, by gavage, site: liver, lesion: hepatocellular adenoma + hepatocellular carcinoma + neoplastic nodule, dosed 64 weeks, study length 81 weeks) of 32.9 mg/kg/day, a TD50 (mouse, strain B6C3F1, males, by gavage, site: lung, lesion: alveolar/bronchiolar adenoma + alveolar/bronchiolar carcinoma, dosed 64 weeks, study length 81 weeks) of 1.19 mg/kg/day and a TD50 (mouse, strain B6C3F1, males, by gavage, site: lung, lesion: alveolar/bronchiolar carcinoma, dosed 64 weeks, study length 81 weeks) of 2.05 mg/kg/day. The TD50 (mouse, strain B6C3F1, males, by gavage, site: myocardium, lesion: sarcoma, NOS, dosed 64 weeks, study length 81 weeks) was 3.87 mg/kg/day and 6.28 mg/kg/day, the TD50 (rat, strain Sprague-Dawley, females, by gavage, site: any site (literature study), lesion: several types, types named in the paper, dosed 52 weeks, study length 85 weeks) was 0.271 mg/kg/day and the TD50 (rat, strain Sprague-Dawley, females, by gavage, site: mammary gland, lesion: adenocarcinoma, NOS, dosed 52 weeks, study length 85 weeks) was 0.523 mg/kg/day. The TD50 (rat, strain Sprague-Dawley, males, by gavage, site: all sites, lesion: leukemia + lymphoma, dosed 52 weeks, study length 84 weeks) was 2.73 mg/kg/day (inactive) and the TD50 (rat, strain Sprague-Dawley, males, by gavage, site: any site (literature study), lesion: several types, types named in the paper, dosed 52 weeks, study length 84 weeks) was 0.481 mg/kg/day (inactive).

Compound `Nc1cccc2c(N)cccc12` has a TD50 (mouse, strain B6C3F1, females, in feed, site: any site (literature study), lesion: several types, types named in the paper, dosed 103 weeks, study length 105 weeks) of 223 mg/kg/day, a TD50 (mouse, strain B6C3F1, females, in feed, site: liver + lung + thyroid gland, lesion: hepatocellular adenoma + hepatocellular carcinoma + alveolar/bronchiolar adenoma + alveolar/bronchiolar carcinoma + c-cell adeno, dosed 103 weeks, study length 105 weeks) of 66.6 mg/kg/day and a TD50 (mouse, strain B6C3F1, females, in feed, site: liver, lesion: hepatocellular adenoma + hepatocellular carcinoma + neoplastic nodule, dosed 103 weeks, study length 105 weeks) of 129 mg/kg/day. For the same compound, the TD50 (mouse, strain B6C3F1, females, in feed, site: liver, lesion: hepatocellular adenoma + hepatocellular carcinoma, dosed 103 weeks, study length 105 weeks) was 129 mg/kg/day, the TD50 (mouse, strain B6C3F1, females, in feed, site: liver, lesion: hepatocellular carcinoma, dosed 103 weeks, study length 105 weeks) was 115 mg/kg/day and the TD50 (mouse, strain B6C3F1, females, in feed, site: lung, lesion: alveolar/bronchiolar adenoma + alveolar/bronchiolar carcinoma, dosed 103 weeks, study length 105 weeks) was 331 mg/kg/day. For the same compound, the TD50 (mouse, strain B6C3F1, females, in feed, site: thyroid gland, lesion: c-cell adenoma + c-cell carcinoma, dosed 103 weeks, study length 105 weeks) was 936 mg/kg/day, the TD50 (mouse, strain B6C3F1, females, in feed, site: thyroid gland, lesion: c-cell carcinoma, dosed 103 weeks, study length 105 weeks) was 1320 mg/kg/day and the TD50 (mouse, strain B6C3F1, females, in feed, site: thyroid gland, lesion: follicular-cell adenoma + papillary cystadenoma, NOS + papillary adenoma, dosed 103 weeks, study length 105 weeks) was 327 mg/kg/day. It also gave a TD50 (mouse, strain B6C3F1, males, in feed, site: any site (literature study), lesion: several types, types named in the paper, dosed 103 weeks, study length 105 weeks) of 583 mg/kg/day, a TD50 (mouse, strain B6C3F1, males, in feed, site: liver, lesion: hepatocellular adenoma + hepatocellular carcinoma + neoplastic nodule, dosed 103 weeks, study length 105 weeks) of 1640 mg/kg/day and a TD50 (mouse, strain B6C3F1, males, in feed, site: thyroid gland, lesion: c-cell adenoma + c-cell carcinoma + follicular-cell adenoma + papillary cystadenoma, NOS + papillary adenoma, dosed 103 weeks, study length 105 weeks) of 217 mg/kg/day. The TD50 (mouse, strain B6C3F1, males, in feed, site: thyroid gland, lesion: c-cell adenoma + c-cell carcinoma, dosed 103 weeks, study length 105 weeks) was 1260 mg/kg/day, the TD50 (mouse, strain B6C3F1, males, in feed, site: thyroid gland, lesion: c-cell carcinoma, dosed 103 weeks, study length 105 weeks) was 1910 mg/kg/day and the TD50 (mouse, strain B6C3F1, males, in feed, site: thyroid gland, lesion: follicular-cell adenoma + papillary cystadenoma, NOS + papillary adenoma, dosed 103 weeks, study length 105 weeks) was 276 mg/kg/day. It also gave a TD50 (rat, strain Fischer 344, females, in feed, site: any site (literature study), lesion: several types, types named in the paper, dosed 103 weeks, study length 106 weeks) of 55.8 mg/kg/day, a TD50 (rat, strain Fischer 344, females, in feed, site: clitoral gland + uterus, lesion: adenoma, NOS + carcinoma, NOS + endometrial stromal polyp, dosed 103 weeks, study length 106 weeks) of 50.8 mg/kg/day and a TD50 (rat, strain Fischer 344, females, in feed, site: clitoral gland, lesion: adenoma, NOS + carcinoma, NOS, dosed 103 weeks, study length 106 weeks) of 137 mg/kg/day. For the same compound, the TD50 (rat, strain Fischer 344, females, in feed, site: liver, lesion: hepatocellular adenoma + hepatocellular carcinoma + neoplastic nodule, dosed 103 weeks, study length 106 weeks) was 236 mg/kg/day, the TD50 (rat, strain Fischer 344, females, in feed, site: thyroid gland, lesion: c-cell adenoma + c-cell carcinoma, dosed 103 weeks, study length 106 weeks) was 57.6 mg/kg/day and the TD50 (rat, strain Fischer 344, females, in feed, site: uterus, lesion: endometrial stromal polyp, dosed 103 weeks, study length 106 weeks) was 69.6 mg/kg/day. The TD50 (rat, strain Fischer 344, males, in feed, site: any site (literature study), lesion: several types, types named in the paper, dosed 103 weeks, study length 106 weeks) was 48.1 mg/kg/day (inactive) and the TD50 (rat, strain Fischer 344, males, in feed, site: liver, lesion: hepatocellular adenoma + hepatocellular carcinoma + neoplastic nodule, dosed 103 weeks, study length 106 weeks) was 1040 mg/kg/day.
